In article PMC9532703, “A novel small molecule RK-019 inhibits FGFR2-amplification gastric cancer cell proliferation and induces apoptosis in vitro and in vivo” (Frontiers in Pharmacology, 2022):

What was measured:
Test in all cases: Kinase selectivity panel
Type in all cases: biochemical
ACK1(h) = target: T1, ACK1(h) (Homo sapiens, UniProt Q07912); conditions: read-out: Inhibition(%) @ 1 µM RK-019
T1 construct: purchased Eurofins Discovery Services (KinaseProfiler)
Outline: (§1)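 Recombinant human kinase incubated with 1 µM compound; ATP-site competition binding quantified in vitro as inhibition ratio.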

ALK6(h) = target: T2, ALK6(h) (Homo sapiens, UniProt O00238); conditions: read-out: Inhibition(%) @ 1 µM RK-019
T2 construct: purchased Eurofins Discovery Services (KinaseProfiler)
Outline: as §1

CDK18/cyclinY(h) = target: T3, CDK18/cyclinY(h) (Homo sapiens, UniProt Q07002); conditions: read-out: Inhibition(%) @ 1 µM RK-019
T3 construct: purchased Eurofins Discovery Services (KinaseProfiler)
Outline: as §1

CDK6/cyclinD3(h) = target: T4, CDK6/cyclinD3(h) (Homo sapiens, UniProt Q00534); conditions: read-out: Inhibition(%) @ 1 µM RK-019
T4 construct: purchased Eurofins Discovery Services (KinaseProfiler)
T4 sequence (Q00534 whole entry): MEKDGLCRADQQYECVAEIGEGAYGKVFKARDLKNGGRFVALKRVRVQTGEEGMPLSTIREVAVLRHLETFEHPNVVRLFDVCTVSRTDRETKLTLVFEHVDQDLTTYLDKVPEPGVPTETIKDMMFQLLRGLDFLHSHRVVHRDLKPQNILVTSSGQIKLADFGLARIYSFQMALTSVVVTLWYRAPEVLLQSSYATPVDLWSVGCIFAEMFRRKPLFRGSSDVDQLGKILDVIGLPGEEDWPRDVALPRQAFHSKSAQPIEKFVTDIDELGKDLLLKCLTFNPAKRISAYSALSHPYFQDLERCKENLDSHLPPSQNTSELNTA
T4 sequence (P30281 whole entry partner): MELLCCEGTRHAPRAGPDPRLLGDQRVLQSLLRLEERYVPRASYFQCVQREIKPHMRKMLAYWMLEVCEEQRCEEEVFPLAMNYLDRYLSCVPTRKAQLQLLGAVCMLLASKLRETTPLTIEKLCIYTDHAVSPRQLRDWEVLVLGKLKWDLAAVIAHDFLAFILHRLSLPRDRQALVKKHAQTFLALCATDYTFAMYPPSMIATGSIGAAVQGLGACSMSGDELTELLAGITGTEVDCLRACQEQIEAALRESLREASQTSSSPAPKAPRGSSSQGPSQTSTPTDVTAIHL
Outline: as §1

CK1δ(h) = target: T5, CK1δ(h) (Homo sapiens, UniProt P48730); conditions: read-out: Inhibition(%) @ 1 µM RK-019
T5 construct: purchased Eurofins Discovery Services (KinaseProfiler)
Outline: as §1

CK2α2(h) = target: T6, CK2α2(h) (Homo sapiens, UniProt P19784); conditions: read-out: Inhibition(%) @ 1 µM RK-019
T6 construct: purchased Eurofins Discovery Services (KinaseProfiler)
Outline: as §1

DDR1(h) = target: T7, DDR1(h) (Homo sapiens, UniProt Q08345); conditions: read-out: Inhibition(%) @ 1 µM RK-019
T7 construct: purchased Eurofins Discovery Services (KinaseProfiler)
Outline: as §1

EGFR(L858R)(h) = target: T8, EGFR(L858R)(h) (Homo sapiens, UniProt P00533, L858R); conditions: read-out: Inhibition(%) @ 1 µM RK-019
T8 construct: purchased Eurofins Discovery Services (KinaseProfiler)
Outline: as §1

EGFR(T790M,L858R)(h) = target: T9, EGFR(T790M,L858R)(h) (Homo sapiens, UniProt P00533, L858R/T790M); conditions: read-out: Inhibition(%) @ 1 µM RK-019
T9 construct: purchased Eurofins Discovery Services (KinaseProfiler)
Outline: as §1

EphA1(h) = target: T10, EphA1(h) (Homo sapiens, UniProt P21709); conditions: read-out: Inhibition(%) @ 1 µM RK-019
T10 construct: purchased Eurofins Discovery Services (KinaseProfiler)
Outline: as §1

EphA2(h) = target: T11, EphA2(h) (Homo sapiens, UniProt P29317); conditions: read-out: Inhibition(%) @ 1 µM RK-019
T11 construct: purchased Eurofins Discovery Services (KinaseProfiler)
Outline: as §1

EphA7(h) = target: T12, EphA7(h) (Homo sapiens, UniProt Q15375); conditions: read-out: Inhibition(%) @ 1 µM RK-019
T12 construct: purchased Eurofins Discovery Services (KinaseProfiler)
Outline: as §1

FGFR2(h) = target: T13, FGFR2(h) (Homo sapiens, UniProt P21802)
T13 construct: purchased Eurofins Discovery Services (KinaseProfiler)
T13 sequence (P21802 22-821): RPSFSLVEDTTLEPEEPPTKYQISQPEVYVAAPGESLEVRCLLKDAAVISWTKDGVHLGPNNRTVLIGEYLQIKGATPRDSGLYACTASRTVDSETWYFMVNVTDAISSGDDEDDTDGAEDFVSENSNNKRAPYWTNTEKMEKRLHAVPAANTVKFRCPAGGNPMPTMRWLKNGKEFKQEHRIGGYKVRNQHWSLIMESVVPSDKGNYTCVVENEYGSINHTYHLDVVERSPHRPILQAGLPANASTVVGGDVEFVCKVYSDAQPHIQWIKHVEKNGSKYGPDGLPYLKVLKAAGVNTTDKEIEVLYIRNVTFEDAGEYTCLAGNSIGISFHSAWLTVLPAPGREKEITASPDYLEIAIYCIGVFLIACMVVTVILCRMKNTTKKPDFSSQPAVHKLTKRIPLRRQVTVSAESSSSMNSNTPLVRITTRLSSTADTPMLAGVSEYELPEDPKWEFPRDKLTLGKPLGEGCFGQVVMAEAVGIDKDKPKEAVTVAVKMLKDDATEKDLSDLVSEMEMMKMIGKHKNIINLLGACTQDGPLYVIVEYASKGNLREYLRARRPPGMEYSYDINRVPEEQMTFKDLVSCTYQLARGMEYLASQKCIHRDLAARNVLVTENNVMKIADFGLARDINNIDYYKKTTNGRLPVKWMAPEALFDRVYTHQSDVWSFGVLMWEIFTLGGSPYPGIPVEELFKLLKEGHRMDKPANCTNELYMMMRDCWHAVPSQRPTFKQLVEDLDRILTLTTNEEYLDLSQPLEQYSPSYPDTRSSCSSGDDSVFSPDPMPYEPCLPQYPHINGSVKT
Outline: as §1

HIPK3(h) = target: T14, HIPK3(h) (Homo sapiens, UniProt Q9H422); conditions: read-out: Inhibition(%) @ 1 µM RK-019
T14 construct: purchased Eurofins Discovery Services (KinaseProfiler)
Outline: as §1

IR(h), activated = target: T15, IR(h), activated (Homo sapiens, UniProt P06213); conditions: read-out: Inhibition(%) @ 1 µM RK-019
T15 construct: purchased Eurofins Discovery Services (KinaseProfiler)
Outline: as §1

LRRK2(h) = target: T16, LRRK2(h) (Homo sapiens, UniProt Q5S007); conditions: read-out: Inhibition(%) @ 1 µM RK-019
T16 construct: purchased Eurofins Discovery Services (KinaseProfiler)
Outline: as §1

LTK(h) = target: T17, LTK(h) (Homo sapiens, UniProt P29376); conditions: read-out: Inhibition(%) @ 1 µM RK-019
T17 construct: purchased Eurofins Discovery Services (KinaseProfiler)
Outline: as §1

MAPK2(h) = target: T18, MAPK2(h) (Homo sapiens, UniProt P28482); conditions: read-out: Inhibition(%) @ 1 µM RK-019
T18 construct: purchased Eurofins Discovery Services (KinaseProfiler)
Outline: as §1

MRCKβ(h) = target: T19, MRCKβ(h) (Homo sapiens, UniProt Q9Y5S2); conditions: read-out: Inhibition(%) @ 1 µM RK-019
T19 construct: purchased Eurofins Discovery Services (KinaseProfiler)
T19 sequence (Q9Y5S2 whole entry): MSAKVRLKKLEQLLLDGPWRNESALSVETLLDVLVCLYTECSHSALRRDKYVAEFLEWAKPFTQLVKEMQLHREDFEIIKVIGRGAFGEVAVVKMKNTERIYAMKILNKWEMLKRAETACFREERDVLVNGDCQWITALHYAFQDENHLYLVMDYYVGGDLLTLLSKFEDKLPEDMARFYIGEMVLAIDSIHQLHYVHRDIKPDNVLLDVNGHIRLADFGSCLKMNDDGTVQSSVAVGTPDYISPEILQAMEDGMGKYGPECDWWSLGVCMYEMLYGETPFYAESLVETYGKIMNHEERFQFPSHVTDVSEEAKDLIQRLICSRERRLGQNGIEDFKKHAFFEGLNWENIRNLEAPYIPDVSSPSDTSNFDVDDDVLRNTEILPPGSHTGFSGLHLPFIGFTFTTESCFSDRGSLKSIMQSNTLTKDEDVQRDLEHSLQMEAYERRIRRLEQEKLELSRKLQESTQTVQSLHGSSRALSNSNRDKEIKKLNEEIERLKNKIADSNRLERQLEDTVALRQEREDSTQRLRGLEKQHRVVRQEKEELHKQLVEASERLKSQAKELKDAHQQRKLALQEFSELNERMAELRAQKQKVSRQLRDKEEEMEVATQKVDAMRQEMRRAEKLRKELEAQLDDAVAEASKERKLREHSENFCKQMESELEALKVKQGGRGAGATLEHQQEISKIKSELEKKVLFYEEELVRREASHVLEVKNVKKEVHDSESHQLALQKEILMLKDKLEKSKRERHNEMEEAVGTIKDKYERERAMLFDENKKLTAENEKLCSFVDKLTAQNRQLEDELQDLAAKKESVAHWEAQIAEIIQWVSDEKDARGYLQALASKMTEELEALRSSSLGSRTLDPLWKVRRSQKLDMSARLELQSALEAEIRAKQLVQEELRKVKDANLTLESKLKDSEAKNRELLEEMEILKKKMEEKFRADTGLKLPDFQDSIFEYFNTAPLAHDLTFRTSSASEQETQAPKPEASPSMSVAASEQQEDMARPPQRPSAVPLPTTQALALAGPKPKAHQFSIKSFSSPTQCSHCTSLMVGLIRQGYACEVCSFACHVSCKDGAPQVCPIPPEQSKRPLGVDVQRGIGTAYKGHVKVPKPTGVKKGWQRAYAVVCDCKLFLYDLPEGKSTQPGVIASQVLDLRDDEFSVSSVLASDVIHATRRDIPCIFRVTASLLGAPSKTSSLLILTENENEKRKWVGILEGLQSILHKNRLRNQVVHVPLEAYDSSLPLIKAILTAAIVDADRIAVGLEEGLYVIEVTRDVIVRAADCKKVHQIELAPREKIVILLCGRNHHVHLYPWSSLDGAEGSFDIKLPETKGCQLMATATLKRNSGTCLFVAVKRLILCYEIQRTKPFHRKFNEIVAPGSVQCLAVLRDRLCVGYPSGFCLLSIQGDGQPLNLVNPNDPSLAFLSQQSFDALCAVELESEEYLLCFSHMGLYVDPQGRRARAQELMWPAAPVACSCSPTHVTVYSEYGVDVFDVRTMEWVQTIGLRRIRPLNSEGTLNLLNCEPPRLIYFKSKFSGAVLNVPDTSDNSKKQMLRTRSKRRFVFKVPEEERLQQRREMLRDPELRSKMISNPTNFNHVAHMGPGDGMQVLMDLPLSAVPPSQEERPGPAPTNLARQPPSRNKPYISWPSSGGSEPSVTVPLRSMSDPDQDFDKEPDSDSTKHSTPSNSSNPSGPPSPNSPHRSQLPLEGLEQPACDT
Outline: as §1

NEK1(h) = target: T20, NEK1(h) (Homo sapiens, UniProt Q96PY6); conditions: read-out: Inhibition(%) @ 1 µM RK-019
T20 construct: purchased Eurofins Discovery Services (KinaseProfiler)
Outline: as §1

NUAK2(h) = target: T21, NUAK2(h) (Homo sapiens, UniProt Q9H093); conditions: read-out: Inhibition(%) @ 1 µM RK-019
T21 construct: purchased Eurofins Discovery Services (KinaseProfiler)
Outline: as §1

PAK4(h) = target: T22, PAK4(h) (Homo sapiens, UniProt O96013); conditions: read-out: Inhibition(%) @ 1 µM RK-019
T22 construct: purchased Eurofins Discovery Services (KinaseProfiler)
T22 sequence (O96013 whole entry): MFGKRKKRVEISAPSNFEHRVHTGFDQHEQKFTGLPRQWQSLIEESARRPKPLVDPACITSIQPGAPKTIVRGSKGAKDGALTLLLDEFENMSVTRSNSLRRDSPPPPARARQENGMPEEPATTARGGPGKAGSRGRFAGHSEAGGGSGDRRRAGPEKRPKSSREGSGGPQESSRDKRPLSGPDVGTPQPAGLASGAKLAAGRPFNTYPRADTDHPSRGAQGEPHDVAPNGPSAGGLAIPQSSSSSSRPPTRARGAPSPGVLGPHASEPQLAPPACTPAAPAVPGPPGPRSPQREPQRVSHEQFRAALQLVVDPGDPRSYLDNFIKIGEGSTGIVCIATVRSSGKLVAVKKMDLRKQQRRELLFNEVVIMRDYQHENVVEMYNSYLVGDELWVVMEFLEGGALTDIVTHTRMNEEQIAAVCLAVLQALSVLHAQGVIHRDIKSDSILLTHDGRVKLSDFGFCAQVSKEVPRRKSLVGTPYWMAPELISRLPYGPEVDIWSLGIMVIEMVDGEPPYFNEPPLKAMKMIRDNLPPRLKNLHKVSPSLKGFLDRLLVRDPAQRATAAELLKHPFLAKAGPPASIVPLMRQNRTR
Outline: as §1

[1] = target: T23, PI3 Kinase (p110d/p85a)(h) (Homo sapiens, UniProt O00329); conditions: read-out: Inhibition(%) @ 1 µM RK-019
T23 construct: purchased Eurofins Discovery Services (KinaseProfiler)
Outline: as §1

PKAcβ(h) = target: T24, PKAcβ(h) (Homo sapiens, UniProt P22694); conditions: read-out: Inhibition(%) @ 1 µM RK-019
T24 construct: purchased Eurofins Discovery Services (KinaseProfiler)
Outline: as §1

Rsk2(h) = target: T25, Rsk2(h) (Homo sapiens, UniProt P51812); conditions: read-out: Inhibition(%) @ 1 µM RK-019
T25 construct: purchased Eurofins Discovery Services (KinaseProfiler)
Outline: as §1

SAPK2b(h) = target: T26, SAPK2b(h) (Homo sapiens, UniProt Q15759); conditions: read-out: Inhibition(%) @ 1 µM RK-019
T26 construct: purchased Eurofins Discovery Services (KinaseProfiler)
Outline: as §1

SLK(h) = target: T27, SLK(h) (Homo sapiens, UniProt Q9H2G2); conditions: read-out: Inhibition(%) @ 1 µM RK-019
T27 construct: purchased Eurofins Discovery Services (KinaseProfiler)
Outline: as §1

STK16(h) = target: T28, STK16(h) (Homo sapiens, UniProt O75716); conditions: read-out: Inhibition(%) @ 1 µM RK-019
T28 construct: purchased Eurofins Discovery Services (KinaseProfiler)
Outline: as §1

TAK1(h) = target: T29, TAK1(h) (Homo sapiens, UniProt O43318); conditions: read-out: Inhibition(%) @ 1 µM RK-019
T29 construct: purchased Eurofins Discovery Services (KinaseProfiler)
Outline: as §1

TTK(h) = target: T30, TTK(h) (Homo sapiens, UniProt P33981); conditions: read-out: Inhibition(%) @ 1 µM RK-019
T30 construct: purchased Eurofins Discovery Services (KinaseProfiler)
Outline: as §1

Tie2(Y897S)(h) = target: T31, Tie2(Y897S)(h) (Homo sapiens, UniProt Q02763, Y897S); conditions: read-out: Inhibition(%) @ 1 µM RK-019
T31 construct: purchased Eurofins Discovery Services (KinaseProfiler)
Outline: as §1

TrkA(h) = target: T32, TrkA(h) (Homo sapiens, UniProt P04629); conditions: read-out: Inhibition(%) @ 1 µM RK-019
T32 construct: purchased Eurofins Discovery Services (KinaseProfiler)
Outline: as §1

ULK3(h) = target: T33, ULK3(h) (Homo sapiens, UniProt Q6PHR2); conditions: read-out: Inhibition(%) @ 1 µM RK-019
T33 construct: purchased Eurofins Discovery Services (KinaseProfiler)
Outline: as §1

WNK4(h) = target: T34, WNK4(h) (Homo sapiens, UniProt Q96J92); conditions: read-out: Inhibition(%) @ 1 µM RK-019
T34 construct: purchased Eurofins Discovery Services (KinaseProfiler)
T34 sequence (Q96J92 whole entry): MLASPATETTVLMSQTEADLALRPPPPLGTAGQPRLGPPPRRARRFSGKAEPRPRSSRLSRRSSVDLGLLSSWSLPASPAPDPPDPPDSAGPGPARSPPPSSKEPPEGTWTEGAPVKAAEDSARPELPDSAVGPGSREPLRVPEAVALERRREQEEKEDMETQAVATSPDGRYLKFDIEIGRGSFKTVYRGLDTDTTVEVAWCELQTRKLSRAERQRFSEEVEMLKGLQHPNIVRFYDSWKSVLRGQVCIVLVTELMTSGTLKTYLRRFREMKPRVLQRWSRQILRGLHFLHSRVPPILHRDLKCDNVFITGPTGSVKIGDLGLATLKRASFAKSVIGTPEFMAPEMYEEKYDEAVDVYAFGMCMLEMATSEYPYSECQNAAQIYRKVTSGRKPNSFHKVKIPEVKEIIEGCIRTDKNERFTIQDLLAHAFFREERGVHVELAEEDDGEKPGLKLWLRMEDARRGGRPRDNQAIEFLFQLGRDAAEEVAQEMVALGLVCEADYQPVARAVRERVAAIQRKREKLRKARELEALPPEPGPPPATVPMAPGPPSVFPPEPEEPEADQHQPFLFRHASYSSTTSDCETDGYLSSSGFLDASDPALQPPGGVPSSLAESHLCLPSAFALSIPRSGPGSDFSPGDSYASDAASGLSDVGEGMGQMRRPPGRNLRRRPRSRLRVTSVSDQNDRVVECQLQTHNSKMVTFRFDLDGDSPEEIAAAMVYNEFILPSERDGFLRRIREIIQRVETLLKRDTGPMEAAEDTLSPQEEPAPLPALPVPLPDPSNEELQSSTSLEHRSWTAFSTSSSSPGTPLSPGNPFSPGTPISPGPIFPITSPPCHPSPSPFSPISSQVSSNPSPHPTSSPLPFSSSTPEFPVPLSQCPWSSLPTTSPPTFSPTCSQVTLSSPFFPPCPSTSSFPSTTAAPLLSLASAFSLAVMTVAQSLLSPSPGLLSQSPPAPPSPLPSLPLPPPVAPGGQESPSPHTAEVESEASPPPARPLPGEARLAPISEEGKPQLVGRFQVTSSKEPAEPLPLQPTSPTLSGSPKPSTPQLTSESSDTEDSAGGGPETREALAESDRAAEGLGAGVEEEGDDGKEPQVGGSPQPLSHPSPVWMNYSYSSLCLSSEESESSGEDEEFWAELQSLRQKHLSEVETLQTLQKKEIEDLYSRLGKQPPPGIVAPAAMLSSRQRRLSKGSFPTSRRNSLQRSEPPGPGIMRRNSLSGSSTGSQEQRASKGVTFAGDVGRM
Outline: as §1

cKit(V654A)(h) = target: T35, cKit(V654A)(h) (Homo sapiens, UniProt P10721, V654A); conditions: read-out: Inhibition(%) @ 1 µM RK-019
T35 construct: purchased Eurofins Discovery Services (KinaseProfiler)
Outline: as §1

eEF-2K(h) = target: T36, eEF-2K(h) (Homo sapiens, UniProt O00418); conditions: read-out: Inhibition(%) @ 1 µM RK-019
T36 construct: purchased Eurofins Discovery Services (KinaseProfiler)
Outline: as §1

COc1cc(OC)cc(N(CCN[C@H](C)CO)c2ccc3ncc(-c4cnn(C)c4)c(=O)n3c2)c1 [RK-019, (R)-7-((3,5-dimethoxyphenyl) (2-((1-hydroxypropan-2-yl)amino)ethyl)amino)-3-(1-methyl-1H-pyrazol-4-yl)-4H-pyrido [1,2-a]pyrimidin-4-one]
activity at 1 µM (ACK1(h)): 104% | activity at 1 µM (ALK6(h)): 107% | activity at 1 µM (CDK18/cyclinY(h)): 96% | activity at 1 µM (CDK6/cyclinD3(h)): 106% | activity at 1 µM (CK1δ(h)): 94% | activity at 1 µM (CK2α2(h)): 105% | activity at 1 µM (DDR1(h)): 19% | activity at 1 µM (EGFR(L858R)(h)): 114% | activity at 1 µM (EGFR(T790M,L858R)(h)): 92% | activity at 1 µM (EphA1(h)): 19% | activity at 1 µM (EphA2(h)): 61% | activity at 1 µM (EphA7(h)): 108% | activity at 1 µM (FGFR2(h); FGFR2(h), read-out: Inhibition(%) @ 1 µM RK-019): 1% | inhibition at 1 µM (FGFR2(h); FGFR2, 1 µM, read-out: inhibition (hit in panel)): > 90% | activity at 1 µM (HIPK3(h)): 94% | activity at 1 µM (IR(h), activated): 95% | activity at 1 µM (LRRK2(h)): 80% | activity at 1 µM (LTK(h)): 101% | activity at 1 µM (MAPK2(h)): 115% | activity at 1 µM (MRCKβ(h)): 108% | activity at 1 µM (NEK1(h)): 52% | activity at 1 µM (NUAK2(h)): 90% | activity at 1 µM (PAK4(h)): 82% | activity at 1 µM [1]: 93% | activity at 1 µM (PKAcβ(h)): 98% | activity at 1 µM (Rsk2(h)): 149% | activity at 1 µM (SAPK2b(h)): 94% | activity at 1 µM (SLK(h)): 99% | activity at 1 µM (STK16(h)): 113% | activity at 1 µM (TAK1(h)): 102% | activity at 1 µM (TTK(h)): 98% | activity at 1 µM (Tie2(Y897S)(h)): 77% | activity at 1 µM (TrkA(h)): 92% | activity at 1 µM (ULK3(h)): 91% | activity at 1 µM (WNK4(h)): 86% | activity at 1 µM (cKit(V654A)(h)): 104% | activity at 1 µM (eEF-2K(h)): 97%
